pEC50: −log10 of the molar value. Blank lines part the entries; values can stand above or below the molecule they belong to.
Legend:
[1] = antirhinoviral activity against HRV Protease 3CP (serotype 1A)
[2] = antirhinoviral activity against HRV Protease 3CP (serotype 10)
[3] = antirhinoviral activity against HRV Protease 3CP (serotype 14)
[4] = antirhinoviral activity against HRV Protease 3CP (serotype 2)
[5] = antirhinoviral activity against HRV Protease 3CP (serotype 9)
[6] = antirhinoviral activity against HRV Protease 3CP (serotype 3)
[7] = antirhinoviral activity against HRV Protease 3CP (serotype 16)
[8] = antirhinoviral activity against HRV Protease 3CP (serotype 19)
[9] = antirhinoviral activity against HRV Protease 3CP (serotype 1A); remark: listed apart in the source
[10] = antirhinoviral activity against HRV Protease 3CP (serotype 11)
[11] = antirhinoviral activity against HRV Protease 3CP (serotype 78)
[12] = antirhinoviral activity against HRV Protease 3CP (serotype 39)
[13] = antirhinoviral activity against HRV Protease 3CP (serotype 23)
[14] = antirhinoviral activity against HRV Protease 3CP (serotype 25)
[15] = antirhinoviral activity against HRV Protease 3CP (serotype 10); remark: listed apart in the source
[16] = antirhinoviral activity against HRV Protease 3CP (serotype 13)
[17] = antirhinoviral activity against HRV Protease 3CP (serotype Hanks)
[18] = antirhinoviral activity against Human Rhinovirus Protease 3C (serotype 14)
[19] = antirhinoviral activity against Human Rhinovirus Protease 3C (serotype 10)
[20] = antirhinoviral activity against Human Rhinovirus Protease 3C (serotype 1A)

Compound: CCOC(=O)/C=C/[C@H](C[C@@H]1CCNC1=O)NC(=O)[C@H](Cc1ccc(F)cc1)n1cccc(NC(=O)c2cc(C)on2)c1=O [4-(3-(4-Fluoro-phenyl)-2-{3-[(5-methyl-isoxazole-3-carbonyl)-amino]-2-oxo-2H-pyridin-1-yl}-propionylamino)-5-(2-oxo-pyrrolidin-3-yl)-pent-2-enoic acid ethyl ester]
pEC50 [1]: 7.82
pEC50 [2]: 8.40

Compound: CCOC(=O)/C=C/[C@H](CCC(N)=O)NC(=O)[C@H](Cc1ccc(F)c(F)c1)n1cccc(NC(=O)OCc2ccccc2)c1=O [4-[2-(3-Benzyloxycarbonylamino-2-oxo-2H-pyridin-1-yl)-3-(3,4-difluoro-phenyl)-propionylamino]-6-carbamoyl-hex-2-enoic acid ethyl ester]
pEC50 [1]: 6.29
pEC50 [2]: 7.49

Compound: CCOC(=O)/C=C/[C@H](CCC(N)=O)NC(=O)[C@H](Cc1ccc(F)cc1)n1cccc(NC(=O)OCc2ccccc2)c1=O [4-[2-(3-Benzyloxycarbonylamino-2-oxo-2H-pyridin-1-yl)-3-(4-fluoro-phenyl)-propionylamino]-6-carbamoyl-hex-2-enoic acid ethyl ester]
pEC50 [1]: 6.22
pEC50 [2]: 6.95

Now from value to molecule:

pEC50 [3]: 8.52
Compound: CCOC(=O)/C=C/[C@H](C[C@@H]1CCNC1=O)NC(=O)[C@H](Cc1ccccc1)n1cccc(NC(=O)OCc2ccccc2)c1=O [4-[2-(3-Benzyloxycarbonylamino-2-oxo-2H-pyridin-1-yl)-3-phenyl-propionylamino]-5-(2-oxo-pyrrolidin-3-yl)-pent-2-enoic acid ethyl ester]

pEC50 [1]: 5.93
pEC50 [2]: 5.85
Compound: CCOC(=O)/C=C/[C@H](CCC(N)=O)NC(=O)[C@H](Cc1ccccc1)n1cccc(NC(=O)C2SCCS2)c1=O [6-Carbamoyl-4-(2-{3-[([1,3]dithiolane-2-carbonyl)-amino]-2-oxo-2H-pyridin-1-yl}-3-phenyl-propionylamino)-hex-2-enoic acid ethyl ester]

pEC50 [1]: 8.22
pEC50 [2]: 8.30
Compound: CCOC(=O)/C=C/[C@H](C[C@@H]1CCNC1=O)NC(=O)[C@H](Cc1ccc(F)c(F)c1)n1cccc(NC(=O)c2cc(C)on2)c1=O [(1S,5S)-4-((S)-3-(3,4-Difluoro-phenyl)-2-{3-[(5-methyl-isoxazole-3-carbonyl)-amino]-2-oxo-2H-pyridin-1-yl}-propionylamino)-5-(2-oxo-pyrrolidin-3-yl)-pent-2-enoic acid ethyl ester]

pEC50 [4]: 7.32
pEC50 [5]: 6.96
pEC50 [6]: 7.48
pEC50 [7]: 7.44
pEC50 [8]: 8.05
pEC50 [9]: 6.88
pEC50 [10]: 8.52
pEC50 [11]: 7.92
pEC50 [3]: 8.52
pEC50 [12]: 7.36
pEC50 [13]: 8.00
pEC50 [14]: 7.00
pEC50 [15]: 7.07
pEC50 [16]: 7.36
pEC50 [17]: 8.52
Compound: Cc1cc(C(=O)Nc2cccn([C@@H](Cc3ccc(F)c(F)c3)C(=O)N[C@H](/C=C/C(=O)OC(C)C)C[C@@H]3CCNC3=O)c2=O)no1 [(1S,5S)-4-((S)-3-(3,4-Difluoro-phenyl)-2-{3-[(5-methyl-isoxazole-3-carbonyl)-amino]-2-oxo-2H-pyridin-1-yl}-propionylamino)-5-(2-oxo-pyrrolidin-3-yl)-pent-2-enoic acid isopropyl ester]

pEC50 [18]: 7.48
pEC50 [19]: 6.43
pEC50 [20]: 5.90
Compound: CCOC(=O)/C=C/[C@H](CCC(N)=O)NC(=O)[C@H](Cc1ccccc1)n1cccc(NC(=O)OCc2ccccc2)c1=O [(E)-(S)-4-[(S)-2-(3-Benzyloxycarbonylamino-2-oxo-2H-pyridin-1-yl)-3-phenyl-propionylamino]-6-carbamoyl-hex-2-enoic acid ethyl ester]

From BindingDB's records for doi:10.1021/jm010469k (Agouron Pharmaceuticals, 2002)
